Laboratory results reported in patent US8802678B2, “Carbonylated (aza) cyclohexanes as dopamine D3 receptor ligands” (Bioprojet, priority 2006, dated 2014).
pKi: −log10 of the molar value. Where a name gives a salt, the structure may show the parent alone.

Legend:
human D3 receptor = human D3 receptor (Homo sapiens, UniProt P35462); experiment: [3H]spiperone binding, membranes of CHO cells transfected with human D3 receptor cDNA; settings: affinity for the human D3 receptor; [3H]spiperone 0.5-2 nM, CHO-hD3 membranes, 60 minutes at room temperature
Procedure: Affinity of compounds for the human D3 receptor can be determined by [^3H] spiperone binding CHO cells have been transfected by the cDNA coding for the human D3 receptor (hD3). [^3H]Spiperone (0.5 à 2 nM) binding is performed in the presence of 2.5 to 5 μg of membrane proteins in a medium containing 120 mM NaCl, 5 mM KCl, and 50 mM Tris HCl pH 7.4; incubation for 60 minutes at room temperature is performed. Non specific binding is estimated in the presence of 10 μM haloperidol. Non transfected cells are devoid of any specific binding.

Chain of human D3 receptor (P35462 whole entry): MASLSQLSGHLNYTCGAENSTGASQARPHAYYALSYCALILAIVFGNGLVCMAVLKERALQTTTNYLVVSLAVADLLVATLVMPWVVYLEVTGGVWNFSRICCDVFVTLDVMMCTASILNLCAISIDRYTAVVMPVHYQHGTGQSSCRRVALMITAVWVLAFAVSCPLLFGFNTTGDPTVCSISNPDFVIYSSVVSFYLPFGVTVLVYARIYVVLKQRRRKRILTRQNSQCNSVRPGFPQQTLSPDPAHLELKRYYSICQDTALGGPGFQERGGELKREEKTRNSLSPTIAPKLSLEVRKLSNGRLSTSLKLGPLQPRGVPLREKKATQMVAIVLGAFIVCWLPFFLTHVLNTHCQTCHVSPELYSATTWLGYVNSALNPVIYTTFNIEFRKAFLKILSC

Row | pKi (human D3 receptor) | melting point [°C] | SMILES
1 | 8.07 | 82 | COCC(=O)NC1CCC(CCN2CCC(c3cccc(C(F)(F)F)c3)CC2)CC1 (mixture of isomers) [Example 61, 2-Methoxy-N-(4-{2-[4-(3-trifluoromethylphenyl)piperidin-1-yl]ethyl}cyclohexyl)acetamide trans/cis 95/5]
2 | 8.41 | 252 | NC(=O)CCC(=O)N[C@H]1CC[C@H](CCN2CCN(c3ccccc3)CC2)CC1 [Example 187, N-{4-[2-(4-Phenylpiperazin-1-yl)ethyl]cyclohexyl}succinamide]
3 | 8.46 | 164 to 167 | N#CCNC(=O)CC1CCC(CCN2CCN(c3ccccc3F)CC2)CC1 (mixture of isomers) [Example 308, N-Cyanomethyl-2-(4-{2-[4-(2-fluorophenyl)piperazin-1-yl]ethyl}cyclohexyl)acetamide trans/cis 90/10]
4 | 8.36 | 87 | O=C(C=C1CCC(CCN2CCN(c3cccc(C(F)(F)F)c3)CC2)CC1)N1CCCC1 (stereo not shown) [Example 291, 1-Pyrrolidin-1-yl-2-(4-{2-[4-(3-trifluoromethylphenyl)piperazin-1-yl]ethyl}cyclohexylidene) ethanone]
5 | – | 174 | Cc1c(F)cccc1N1CCN(CC[C@H]2CC[C@H](NC(=O)CC#N)CC2)CC1 [Example 313, 2-Cyano-N-(4-{2-[4-(3-fluoro-2-methylphenyl)piperazin-1-yl]ethyl}cyclohexyl)acetamide]
6 | – | 68 | CCC(=O)CN1CCC(CCN2CCN(c3cccc(Cl)c3Cl)CC2)CC1 [Example 771]
7 | – | 325 | CC(=O)CN1CCC(CCN2CCN(c3ccc(C)c(C(F)(F)F)c3)CC2)CC1.Cl.Cl

Continued, molecule first:

Row | SMILES | pKi (human D3 receptor) | melting point [°C]
8 | CC(=O)CC1CCC(CCN2CCN(c3ccccc3F)CC2)CC1.Cl (mixture of isomers) [Example 288, 1-(4-{2-[4-(2-Fluorophenyl)-piperazin-1-yl]ethyl}cyclohexyl)-propan-2-one, hydrochloride trans/cis 80/20] | 8.68 | 233 to 236
9 | O=C(N[C@H]1CC[C@H](CCN2CCN(c3ccccn3)CC2)CC1)C1CC=CC1 [Example 65, Cyclopent-3-enecarboxylic acid {4-[2-(4-pyridin-2-ylpiperazin-1-yl)ethyl]cyclohexyl}amide] | 7.50 | 208
10 | COc1ccccc1N1CCN(CCC2CCN(CC(C)=O)CC2)CC1.Cl.Cl [Example 20, 1-(4-{2-[4-(2-Methoxy-phenyl)piperazin-1-yl]ethyl}piperidin-1-yl)propan-2-one, dihydrochloride] | 8.02 | 260
11 | CC(=O)CN1CCC(CCN2CCN(c3cccc4ccccc34)CC2)CC1.Cl.Cl [Example 36, 1-{4-[2-(4-Naphthalen-1-ylpiperazin-1-yl)ethyl]piperidin-1-yl}propan-2-one] | 8.88 | 338
12 | CC(=O)C(=O)N1CCC(CCN2CCN(c3cccc(C(F)(F)F)c3)CC2)CC1 [Example 2, 1-(4-{2-[4-(3-trifluoromethylphenyl)piperazin-1-yl]ethyl}-piperidin-1-yl)propane-1,2-dione, hydrochloride] | 8.18 | –
13 | Cl.N#CCC(=O)N1CCC(CCN2CCN(c3cccc(C(F)(F)F)c3)CC2)CC1 [Example 15, 3-Oxo-3-(4-{2-[4-(3-trifluoromethylphenyl)piperazin-1-yl]ethyl}piperidin-1-yl)propanenitrile, hydrochloride] | 7.82 | 184
14 | O=C(CO)N[C@H]1CC[C@H](CCN2CCN(c3cccc(C(F)(F)F)c3)CC2)CC1 [Example 46, 2-Hydroxy-N-(4-{2-[4-(3-trifluoromethylphenyl)piperazin-1-yl]ethyl}cyclohexyl)acetamide, hydrochloride] | 7.92 | –
15 | COCC(=O)N[C@H]1CC[C@H](CCN2CC=C(c3cccc(C)c3C#N)CC2)CC1 [Example 54, N-(4-{2-[4-(2-Cyano-3-methylphenyl)-3,6-dihydro-2H-pyridin-1-yl]ethyl}cyclohexyl)-2-methoxyacetamide] | 7.74 | 158
16 | N#Cc1ccc2c(c1)CCN(CC[C@H]1CC[C@H](NC(=O)CC(F)(F)F)CC1)C2 [Example 110, N-{4-[2-(6-Cyano-3,4-dihydro-1H-isoquinolin-2-yl)ethyl]cyclohexyl}-3,3,3-trifluoropropanamide] | 7.97 | 215
17 | CC(=O)NCC(=O)N1CCC(CCN2CCN(c3cccc(C(F)(F)F)c3)CC2)CC1 [Example 14, N-[2-Oxo-2-(4-{2-[4-(3-trifluoromethylphenyl)piperazin-1-yl]ethyl}piperidin-1-yl)ethyl]acetamide] | 7.82 | 133
18 | Cc1ccc(C)c(N2CCN(CC[C@H]3CC[C@H](NC(=O)CCCC#N)CC3)CC2)c1 [Example 413, 4-Cyano-N-(4-{2-[4-(2,5-dimethylphenyl)piperazin-1-yl]ethyl}cyclohexyl)butanamide] | – | 158
19 | COCCCC(=O)N[C@H]1CC[C@H](CCN2CCN(c3cc(F)c(F)c(F)c3)CC2)CC1 [Example 568, 4-Methoxy-N-(4-{2-[4-(3,4,5-trifluorophenyl)piperazin-1-yl]ethyl}cyclohexyl)butanamide] | – | 194
